Laboratory results published in PMC7532004, “Site-specific effects of neurosteroids on GABAA receptor activation and desensitization” (eLife, 2020).
Like-named read-outs stand apart in the source and are kept apart here.

What was measured:
α1(Q242L)β3 GABAAR [1] = target: T1, α1(Q242L)β3 GABAAR (UniProt P28472+P62813, Q268L); assay: [3H]muscimol binding to HEK cell membranes, intersubunit site mutant; parameters: expressed in transfected cells; host or cells: HEK293S GnTI- (ATCC CRL-3022), transient; species or system rat α1, human β3; details: for Emax (% of control) of [3H]muscimol binding: 100% means no effect
Protocol: (§1) The human α1 and β3 GABAAR subunits were subcloned into pcDNA3 for molecular manipulations and cRNA synthesis. Using QuikChange Site-Directed Mutagenesis Kit (Agilent Technologies, Santa Clara, CA), a FLAG tag was first added to the α1 subunit then an 8xHis tag was added to generate the following His-FLAG tag tandem ([…]), inserted between the fourth and fifth residues of the mature peptide. The α1 and β3 subunits were then transferred into the pcDNA4/TO and pcDNA5/TO vectors (Thermo Fisher Scientific), respectively, for tetracycline inducible expression. Transient expression was done using the GABAAR subunits rat α1FLAG ([Ueno et al., 1996]) and human β3 obtained from Geoffrey White (Neurogen, Branford, CT), each were subcloned into pcDNA3 for molecular manipulations and cRNA synthesis. Point mutations were generated using the QuikChange Site-Directed Mutagenesis Kit (Agilent) and the coding region was fully sequenced prior to use. The cDNAs were linearized with XbaI (NEB Labs, Ipswich, MA), and the cRNAs were generated using T7 mMessage mMachine (Ambion, Austin, TX).
(§2) [^3H]muscimol-binding assays were performed using a previously described method ([Chen et al., 2019]). […] Assay tubes were incubated for 1 hr on ice in the dark. […] Membranes were collected on Whatman/GF-C glass filter papers using a Brandel cell harvester (Gaithersburg, MD). To perform [^3H]muscimol binding isotherms, 100 μg/ml aliquots of membrane protein were incubated with 0.3 nM–1 μM [^3H]muscimol for 1 hr on ice in the dark. The specific activity for [^3H]muscimol concentrations from 30 nM to 1 μM was reduced to 2 Ci/mmol by dilution with nonradioactive muscimol. The membranes were collected on Whatman/GF-B glass filter papers using a vacuum manifold. […] For [^3H]muscimol-binding experiments examining competitive interactions between neurosteroids, the combined neurosteroids (0.3 μM 3α5αP or 3 μM KK148 ±30 μM KK150) or the same volume of dimethyl sulfoxide (DMSO) were added to the membranes which were then incubated with 3 nM [^3H]muscimol on ice for 1 hr. Time courses of neurosteroid [^3H]muscimol binding enhancement were examined by adding 10 µM of neurosteroids (3α5αP, 3β5αP) to membranes that had been fully equilibrated with 3 nM [^3H]muscimol for 1 hr on ice; binding was then measured as a function of time at 1, 3, 10, 30, 60 min. The membranes were collected on Whatman/GF-B glass filter papers using a vacuum manifold. Radioactivity bound to the filters was measured by liquid scintillation spectrometry using Bio-Safe II (Research Products International, Mount Prospect, IL).

α1(V227W)β3 GABAAR = target: T2, α1(V227W)β3 GABAAR (UniProt P28472+P62813, V253W); assay: [3H]muscimol binding to HEK cell membranes, α1 intrasubunit site mutant V227W; parameters: species or system rat α1, human β3
T2 construct: expressed in transfected cells; host or cells: HEK293S GnTI- (ATCC CRL-3022), transient
Protocol: as §1, §2

α1(Q242L)β3 GABAAR [2] = target: T1, α1(Q242L)β3 GABAAR; assay: Two-electrode voltage clamp in Xenopus laevis oocytes, Q242L mutant; assay type: cell-based; parameters: expressed in transfected cells; host or cells: Xenopus laevis oocytes injected with cRNA
Protocol: (§3) The wild-type and mutant α1β3 GABAAR were expressed in oocytes from the African clawed frog (Xenopus laevis). Frogs were purchased from Xenopus 1 (Dexter, MI), and housed and cared for in a Washington University Animal Care Facility under the supervision of the Washington University Division of Comparative Medicine. Harvesting of oocytes was conducted under the Guide for the Care and Use of Laboratory Animals as adopted and promulgated by the National Institutes of Health. The animal protocol (No. 20180191) was approved by the Animal Studies Committee of Washington University in St. Louis. The oocytes were injected with a total of 12 ng cRNA. The ratio of cRNAs was 5:1 ratio (α1:β3) to minimize the expression of β3 homomeric receptors. Following injection, the oocytes were incubated in ND96 (96 mM NaCl, 2 mM KCl, 1.8 mM CaCl2, 1 mM MgCl2, 5 mM HEPES; pH 7.4) with supplements (2.5 mM Na pyruvate, 100 U/ml penicillin, 100 μg/ml streptomycin and 50 μg/ml gentamycin) at 16°C for 2 days prior to conducting electrophysiological recordings. The electrophysiological recordings were conducted at room temperature using standard two-electrode voltage clamp. The oocytes were clamped at −60 mV. The chamber (RC-1Z, Warner Instruments, Hamden, CT) was perfused with ND96 at 5–8 ml/min. […] Current traces were analyzed with Clampfit (Molecular Devices). […]

α1(V256S)β3 GABAAR [3] = target: T3, α1(V256S)β3 GABAAR (UniProt P28472+P62813, V283S); assay: Two-electrode voltage clamp in Xenopus laevis oocytes, V256S mutant; assay type: cell-based; parameters: expressed in transfected cells; host or cells: Xenopus laevis oocytes injected with cRNA; details: for % of desensitization (reduction of steady-state current): 1 mM GABA
Protocol: The wild-type and mutant α1β3 GABAAR were expressed in oocytes from the African clawed frog (Xenopus laevis). Frogs were purchased from Xenopus 1 (Dexter, MI), and housed and cared for in a Washington University Animal Care Facility under the supervision of the Washington University Division of Comparative Medicine. Harvesting of oocytes was conducted under the Guide for the Care and Use of Laboratory Animals as adopted and promulgated by the National Institutes of Health. The animal protocol (No. 20180191) was approved by the Animal Studies Committee of Washington University in St. Louis. The oocytes were injected with a total of 12 ng cRNA. The ratio of cRNAs was 5:1 ratio (α1:β3) to minimize the expression of β3 homomeric receptors. Following injection, the oocytes were incubated in ND96 (96 mM NaCl, 2 mM KCl, 1.8 mM CaCl2, 1 mM MgCl2, 5 mM HEPES; pH 7.4) with supplements (2.5 mM Na pyruvate, 100 U/ml penicillin, 100 μg/ml streptomycin and 50 μg/ml gentamycin) at 16°C for 2 days prior to conducting electrophysiological recordings. The electrophysiological recordings were conducted at room temperature using standard two-electrode voltage clamp. The oocytes were clamped at −60 mV. The chamber (RC-1Z, Warner Instruments, Hamden, CT) was perfused with ND96 at 5–8 ml/min. Solutions were gravity-applied from 30 ml glass syringes with glass luer slips via Teflon tubing. The current responses were amplified with an OC-725C amplifier (Warner Instruments, Hamden, CT), digitized with a Digidata 1200 series digitizer (Molecular Devices), and stored using pClamp (Molecular Devices). Current traces were analyzed with Clampfit (Molecular Devices). […] The stock solution of muscimol was made at 20 mM in ND96 and stored at 4°C. The steroids were dissolved in DMSO at 10–20 mM and stored at room temperature.

α1(V256S)β3 GABAAR [4] = target: T3, α1(V256S)β3 GABAAR; assay: [3H]muscimol binding to HEK cell membranes, desensitization-eliminating mutant; parameters: expressed in transfected cells; host or cells: HEK293S GnTI- (ATCC CRL-3022), transient; species or system rat α1, human β3; details: 10 μM neurosteroid; 3 nM [3H]muscimol
Protocol: as §1, with “Point mutations were generated using the QuikChange Site-Directed Mutagenesis Kit (Agilent) and the coding region was fully sequenced prior to use. The cDNAs were linearized with XbaI (NEB Labs, Ipswich, MA), and the cRNAs were generated using T7 mMessage mMachine (Ambion, Austin, TX).” left out
[^3H]muscimol-binding assays were performed using a previously described method ([Chen et al., 2019]). […] Time courses of neurosteroid [^3H]muscimol binding enhancement were examined by adding 10 µM of neurosteroids (3α5αP, 3β5αP) to membranes that had been fully equilibrated with 3 nM [^3H]muscimol for 1 hr on ice; binding was then measured as a function of time at 1, 3, 10, 30, 60 min. […] Radioactivity bound to the filters was measured by liquid scintillation spectrometry using Bio-Safe II (Research Products International, Mount Prospect, IL).

[5] = target: T4, α1(Q242L)β3(Y284F) GABAAR (UniProt P28472+P62813, Q268L/Y309F); assay: Two-electrode voltage clamp in Xenopus laevis oocytes, intersubunit + β3 intrasubunit mutant; assay type: cell-based; details: 3 μM 3α5αP, 1 mM GABA + 40 μM pentobarbital
T4 construct: expressed in transfected cells; host or cells: Xenopus laevis oocytes injected with cRNA
Protocol: as §3

NCc1cc(=O)[nH]o1 [muscimol]
Bmax of [3H]muscimol binding isotherm (α1(Q242L)β3 GABAAR [1]; α1(Q242L)β3): 9.9 ± 0.6 (P > 0.99 vs. WT) pmol/mg
Kd (α1(Q242L)β3 GABAAR [1]; α1(Q242L)β3, read-out: Kd of [3H]muscimol binding isotherm): 0.0443 ± 0.0046 µM
Bmax of [3H]muscimol binding isotherm (α1(V227W)β3 GABAAR): 11.6 ± 0.4 (P > 0.99 vs. WT) pmol/mg
Kd (α1(V227W)β3 GABAAR; read-out: Kd of [3H]muscimol binding isotherm): 0.0541 ± 0.0058 µM

CC(=O)[C@H]1CC[C@H]2[C@@H]3CC[C@H]4C[C@@H](O)CC[C@]4(C)[C@H]3CC[C@]12C [3β5αP, epi-allopregnanolone]
EC50 (α1(Q242L)β3 GABAAR [1]): 0.27 ± 0.09 µM
Hill slope for modulation of [3H]muscimol binding (α1(Q242L)β3 GABAAR [1]; α1(Q242L)β3, 3 nM [3H]muscimol): 0.77 ± 0.21
Emax (% of control) of [3H]muscimol binding (α1(Q242L)β3 GABAAR [1]; α1(Q242L)β3, 3 nM [3H]muscimol): 204.3 ± 4.5 % of control
Effect of mutation on 3β5αP-enhanced desensitization (α1(Q242L)β3 GABAAR [2]; 3 μM 3β5αP, 1 mM GABA, α1(Q242L)β3 vs WT): without effect
% of desensitization (reduction of steady-state current) (α1(V256S)β3 GABAAR [3]): completely eliminated
Enhancement of specific [3H]muscimol binding in α1(V256S)β3 compared with WT (α1(V256S)β3 GABAAR [4]): absent

CC(=O)[C@H]1CC[C@H]2[C@@H]3CC[C@H]4C[C@H](O)CC[C@]4(C)[C@H]3CC[C@]12C [3α5αP, allopregnanolone]
EC50 (α1(Q242L)β3 GABAAR [1]): 2.66 µM
Hill slope for modulation of [3H]muscimol binding (α1(Q242L)β3 GABAAR [1]; α1(Q242L)β3, 3 nM [3H]muscimol): 1.16 ± 0.37
Emax (% of control) of [3H]muscimol binding (α1(Q242L)β3 GABAAR [1]; α1(Q242L)β3, 3 nM [3H]muscimol): **159.8 ± 10.9 % of control
Decrease of enhancement of [3H]muscimol binding by mutation (α1(Q242L)β3 GABAAR [1]; β3(+)–α1(-) intersubunit site mutation vs WT): ~ 80%
Effect on steady-state current (α1(Q242L)β3 GABAAR [2]; 3 μM 3α5αP, 1 mM GABA + 40 μM pentobarbital, α1(Q242L)β3): small reduction
Inhibition of steady-state current, effect of β3 intrasubunit site mutation [5]: markedly reduced
Inhibitory effect on steady-state current in the V256S mutant (α1(V256S)β3 GABAAR [3]; 3 μM 3α5αP, 1 mM GABA + 40 μM pentobarbital): eliminated
Enhancement of specific [3H]muscimol binding in α1(V256S)β3 compared with WT (α1(V256S)β3 GABAAR [4]): unaffected

C#CCCO[C@H]1CC[C@H]2[C@@H]3CC[C@H]4CC5(CC[C@]4(C)[C@H]3CC[C@]12C)N=N5 [KK148]
Hill slope for modulation of [3H]muscimol binding (α1(Q242L)β3 GABAAR [1]; α1(Q242L)β3, 3 nM [3H]muscimol): 1.24 ± 0.12
Emax (% of control) of [3H]muscimol binding (α1(Q242L)β3 GABAAR [1]; α1(Q242L)β3, 3 nM [3H]muscimol): 434.5 ± 5.6 % of control
EC50 (α1(Q242L)β3 GABAAR [1]; α1(Q242L)β3, 3 nM [3H]muscimol, read-out: EC50 for modulation of [3H]muscimol binding): 2.2 ± 0.31 µM
% of desensitization (reduction of steady-state current) (α1(V256S)β3 GABAAR [3]): 0%
Hill slope for modulation of [3H]muscimol binding (α1(V227W)β3 GABAAR; 3 nM [3H]muscimol): 0.76 ± 0.31
Emax (% of control) of [3H]muscimol binding (α1(V227W)β3 GABAAR; 3 nM [3H]muscimol, 100% means no effect): **209.2 ± 7.4 % of control
EC50 (α1(V227W)β3 GABAAR; 3 nM [3H]muscimol, read-out: EC50 for modulation of [3H]muscimol binding): 1.73 ± 0.68 µM
